According to PubChem BioAssay (NCI):
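Abbreviation: GI50, concentration required for 50% inhibition of growth. At the TGI there is no net growth.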

What was measured:
Assay in all cases: NCI-60 cell line screen, 384-well format
PC-3 prostate = test system: PC-3 prostate
T-47D breast = test system: T-47D breast
HT29 colon = test system: HT29 colon
OVCAR-3 ovarian = test system: OVCAR-3 ovarian
NCI-H322M lung = test system: NCI-H322M lung
MOLT-4 leukemia = test system: MOLT-4 leukemia
NCI-H460 NSCLC = test system: NCI-H460 NSCLC
SK-MEL-2 melanoma = test system: SK-MEL-2 melanoma
NCI-H23 lung = test system: NCI-H23 lung
IGROV1 ovarian = test system: IGROV1 ovarian
HOP-62 NSCLC = test system: HOP-62 NSCLC
M14 melanoma = test system: M14 melanoma
UO-31 renal = test system: UO-31 renal
CAKI-1 renal = test system: CAKI-1 renal
RXF 393 renal = test system: RXF 393 renal
ACHN renal = test system: ACHN renal
SNB-19 CNS = test system: SNB-19 CNS
NCI-H522 lung = test system: NCI-H522 lung
LOX IMVI melanoma = test system: LOX IMVI melanoma
MDA-MB-435 melanoma = test system: MDA-MB-435 melanoma
SNB-75 CNS = test system: SNB-75 CNS
MALME-3M melanoma = test system: MALME-3M melanoma
DU-145 prostate = test system: DU-145 prostate
K-562 leukemia = test system: K-562 leukemia
OVCAR-5 ovarian = test system: OVCAR-5 ovarian
MDA-MB-231 breast = test system: MDA-MB-231 breast
HCT-15 colon = test system: HCT-15 colon
RPMI-8226 leukemia = test system: RPMI-8226 leukemia
OVCAR-8 ovarian = test system: OVCAR-8 ovarian
EKVX NSCLC = test system: EKVX NSCLC
A498 renal = test system: A498 renal
SR leukemia = test system: SR leukemia
786-0 renal = test system: 786-0 renal
HCC-2998 colon = test system: HCC-2998 colon
NCI-H226 lung = test system: NCI-H226 lung
NCI/ADR-RES ovarian = test system: NCI/ADR-RES ovarian
UACC-257 melanoma = test system: UACC-257 melanoma
A549 NSCLC = test system: A549 NSCLC
SF-268 CNS = test system: SF-268 CNS
MDA-MB-468 breast = test system: MDA-MB-468 breast
CCRF-CEM leukemia = test system: CCRF-CEM leukemia
OVCAR-4 ovarian = test system: OVCAR-4 ovarian
SK-MEL-5 melanoma = test system: SK-MEL-5 melanoma
MCF7 breast = test system: MCF7 breast
KM12 colon = test system: KM12 colon
HL-60(TB) leukemia = test system: HL-60(TB) leukemia
HOP-92 NSCLC = test system: HOP-92 NSCLC

**Q.** With `O=C1Nc2ccc(I)cc2/C1=C/c1cc(Br)c(O)c(Br)c1` as the compound, how does the GI50 (PC-3 prostate) read?
**A.** 13.6 µM

**Q.** And the TGI (PC-3 prostate)?
**A.** 27.1 µM

**Q.** And the GI50 (T-47D breast)?
**A.** 12.8 µM

**Q.** And the TGI (T-47D breast)?
**A.** 30 µM

**Q.** And the GI50 (HT29 colon)?
**A.** 14.1 µM

**Q.** And the TGI (HT29 colon)?
**A.** 31.1 µM

**Q.** What about the GI50 (OVCAR-3 ovarian) of the same compound?
**A.** 6.34 µM

**Q.** What about the TGI (OVCAR-3 ovarian) of the same compound?
**A.** 19.2 µM

**Q.** And the GI50 (NCI-H322M lung)?
**A.** 15.7 µM

**Q.** What about the TGI (NCI-H322M lung) of the same compound?
**A.** 39.6 µM

**Q.** And the GI50 (MOLT-4 leukemia)?
**A.** 13.4 µM

**Q.** What about the TGI (MOLT-4 leukemia) of the same compound?
**A.** 26.2 µM

**Q.** And the GI50 (NCI-H460 NSCLC)?
**A.** 14.9 µM

**Q.** And the TGI (NCI-H460 NSCLC)?
**A.** 28.6 µM

**Q.** What about the GI50 (SK-MEL-2 melanoma) of the same compound?
**A.** 15.4 µM

**Q.** What about the TGI (SK-MEL-2 melanoma) of the same compound?
**A.** 30.7 µM

**Q.** What about the GI50 (NCI-H23 lung) of the same compound?
**A.** 14.1 µM

**Q.** What about the TGI (NCI-H23 lung) of the same compound?
**A.** 27.6 µM

**Q.** And the GI50 (IGROV1 ovarian)?
**A.** 18.6 µM

**Q.** And the TGI (IGROV1 ovarian)?
**A.** 41 µM

**Q.** What about the GI50 (HOP-62 NSCLC) of the same compound?
**A.** 20.4 µM

**Q.** What about the TGI (HOP-62 NSCLC) of the same compound?
**A.** 39.9 µM

**Q.** What about the GI50 (M14 melanoma) of the same compound?
**A.** 4.38 µM

**Q.** What about the TGI (M14 melanoma) of the same compound?
**A.** 18.6 µM

**Q.** And the GI50 (UO-31 renal)?
**A.** 13.1 µM

**Q.** And the TGI (UO-31 renal)?
**A.** 28.2 µM

**Q.** And the GI50 (CAKI-1 renal)?
**A.** 21.3 µM

**Q.** What about the TGI (CAKI-1 renal) of the same compound?
**A.** 43.9 µM

**Q.** And the GI50 (RXF 393 renal)?
**A.** 12.6 µM

**Q.** What about the TGI (RXF 393 renal) of the same compound?
**A.** 25.5 µM

**Q.** What about the GI50 (ACHN renal) of the same compound?
**A.** 15.7 µM

**Q.** And the TGI (ACHN renal)?
**A.** 35.7 µM

**Q.** And the GI50 (SNB-19 CNS)?
**A.** 21.4 µM

**Q.** What about the TGI (SNB-19 CNS) of the same compound?
**A.** 56.3 µM

**Q.** And the GI50 (NCI-H522 lung)?
**A.** 13.2 µM

**Q.** What about the TGI (NCI-H522 lung) of the same compound?
**A.** 26.1 µM

**Q.** What about the GI50 (LOX IMVI melanoma) of the same compound?
**A.** 13 µM

**Q.** What about the TGI (LOX IMVI melanoma) of the same compound?
**A.** 29.4 µM

**Q.** And the GI50 (MDA-MB-435 melanoma)?
**A.** 8.13 µM

**Q.** What about the TGI (MDA-MB-435 melanoma) of the same compound?
**A.** 29.1 µM

**Q.** And the GI50 (SNB-75 CNS)?
**A.** 25.7 µM

**Q.** What about the TGI (SNB-75 CNS) of the same compound?
**A.** 51.8 µM

**Q.** And the GI50 (MALME-3M melanoma)?
**A.** 4.43 µM

**Q.** What about the TGI (MALME-3M melanoma) of the same compound?
**A.** 20.8 µM

**Q.** What about the GI50 (DU-145 prostate) of the same compound?
**A.** 22.9 µM

**Q.** And the TGI (DU-145 prostate)?
**A.** 88.9 µM

**Q.** What about the GI50 (K-562 leukemia) of the same compound?
**A.** 17 µM

**Q.** And the TGI (K-562 leukemia)?
**A.** 31.1 µM

**Q.** What about the GI50 (OVCAR-5 ovarian) of the same compound?
**A.** 25.1 µM

**Q.** And the TGI (OVCAR-5 ovarian)?
**A.** 65 µM

**Q.** What about the GI50 (MDA-MB-231 breast) of the same compound?
**A.** 14 µM

**Q.** What about the TGI (MDA-MB-231 breast) of the same compound?
**A.** 31.7 µM

**Q.** What about the GI50 (HCT-15 colon) of the same compound?
**A.** 15.7 µM

**Q.** What about the TGI (HCT-15 colon) of the same compound?
**A.** 30.6 µM

**Q.** What about the GI50 (RPMI-8226 leukemia) of the same compound?
**A.** 6.64 µM

**Q.** And the TGI (RPMI-8226 leukemia)?
**A.** 19.2 µM

**Q.** And the GI50 (OVCAR-8 ovarian)?
**A.** 17.2 µM

**Q.** And the TGI (OVCAR-8 ovarian)?
**A.** 37.4 µM

**Q.** And the GI50 (EKVX NSCLC)?
**A.** 14.3 µM

**Q.** And the TGI (EKVX NSCLC)?
**A.** 30.2 µM

**Q.** What about the GI50 (A498 renal) of the same compound?
**A.** 16 µM

**Q.** What about the TGI (A498 renal) of the same compound?
**A.** 30.7 µM

**Q.** What about the GI50 (SR leukemia) of the same compound?
**A.** 6.31 µM

**Q.** And the TGI (SR leukemia)?
**A.** 18.8 µM

**Q.** And the GI50 ([…]-0 renal)?
**A.** 13.9 µM

**Q.** And the TGI (786-0 renal)?
**A.** 27.4 µM

**Q.** And the GI50 (HCC-2998 colon)?
**A.** 22.8 µM

**Q.** And the TGI (HCC-2998 colon)?
**A.** 38 µM

**Q.** What about the GI50 (NCI-H226 lung) of the same compound?
**A.** 27.2 µM

**Q.** And the TGI (NCI-H226 lung)?
**A.** 68.5 µM

**Q.** And the GI50 (NCI/ADR-RES ovarian)?
**A.** 18 µM

**Q.** What about the TGI (NCI/ADR-RES ovarian) of the same compound?
**A.** 43.5 µM

**Q.** What about the GI50 (UACC-257 melanoma) of the same compound?
**A.** 14.9 µM

**Q.** And the TGI (UACC-257 melanoma)?
**A.** 33.3 µM

**Q.** And the GI50 (A549 NSCLC)?
**A.** 17.2 µM

**Q.** And the TGI (A549 NSCLC)?
**A.** 46 µM

**Q.** What about the GI50 (SF-268 CNS) of the same compound?
**A.** 16.3 µM

**Q.** What about the TGI (SF-268 CNS) of the same compound?
**A.** 52 µM

**Q.** What about the GI50 (MDA-MB-468 breast) of the same compound?
**A.** 11.7 µM

**Q.** And the TGI (MDA-MB-468 breast)?
**A.** 25.2 µM

**Q.** And the GI50 (CCRF-CEM leukemia)?
**A.** 11.3 µM

**Q.** And the TGI (CCRF-CEM leukemia)?
**A.** 23.4 µM

**Q.** And the GI50 (OVCAR-4 ovarian)?
**A.** 19.1 µM

**Q.** What about the TGI (OVCAR-4 ovarian) of the same compound?
**A.** 47.1 µM

**Q.** And the GI50 (SK-MEL-5 melanoma)?
**A.** 12.3 µM

**Q.** And the TGI (SK-MEL-5 melanoma)?
**A.** 24.8 µM

**Q.** What about the GI50 (MCF7 breast) of the same compound?
**A.** 10.1 µM

**Q.** And the TGI (MCF7 breast)?
**A.** 25.3 µM

**Q.** What about the GI50 (KM12 colon) of the same compound?
**A.** 12.5 µM

**Q.** What about the TGI (KM12 colon) of the same compound?
**A.** 27.6 µM

**Q.** What about the GI50 (HL-60(TB) leukemia) of the same compound?
**A.** 11.3 µM

**Q.** And the TGI (HL-60(TB) leukemia)?
**A.** 23.4 µM

**Q.** And the GI50 (HOP-92 NSCLC)?
**A.** 15.6 µM

**Q.** And the TGI (HOP-92 NSCLC)?
**A.** 31.9 µM
